For orientation: GI50 means the concentration at which growth is held to half of that of the control. By AUC(0-inf) is commonly meant the area under the concentration-time curve extrapolated to infinity. Broadly, the Cmax is the peak of the concentration-time curve.

Like-named read-outs stand apart in the source and are kept apart here. Starred links: 1 amine or outer side, 2 acyl side, 3 side chain; linkers in the order of their positions; H or OH if unused. Positions of bridges follow the written chain, without caps; N, C: chain ends. Non-standard residues stand in square brackets, D forms with d. Residues, ends and D or L forms follow the SMILES beside them. *: point of attachment. Leu(3R-OH,Nα-propionyl) = CCC(=O)N[C@H](C(=O)*)[C@H](O)C(C)C; X1 = CC(C)[C@@H](O[*:3])[C@H](N[*:1])C(=O)[*:2]; NMeT = CN[C@H](C(=O)O)[C@@H](C)O; dPhLac = O=C(O)[C@H](O)Cc1ccccc1; NMeA = CN[C@@H](C)C(=O)O; NMeDha = C=C(NC)C(=O)O

From patent US11779649B2, “Antibodies to PMEL17 and conjugates thereof” (Novartis AG, priority 2018, dated 2023) come the findings set out here.

One data set has as its system ERK signaling. The data set is described as follows: Western-blotting of 92.1 cells, ERK signaling. The class given is cell-based. Particulars: FIG. 3C. The protocol:
(§1) 92.1 uveal melanoma were treated with increasing concentrations of Compound (A1) or Compound (A2) as indicated. Following drug treatment overnight, cells were processed for determination of IP1 levels using TR-FRET (time-resolved fluorescent resonance energy transfer) or protein levels by western-blotting.

The subject of another data set is 92.1 cells. The data set is described as follows: Annexin V flow cytometry apoptosis assay, 92.1 cells. Format: cell-based. Conditions: 92.1 and MIAPACA cells, FIG. 2. The protocol:
92.1 and MIAPACA cells were seeded in 96-well plates (5000 cells per well) and treated with increasing concentrations of Compound (A1), Compound (A2), and a fixed dose of Staurosporine (100 nM, positive control) as indicated. Following drug treatment for 96, cells were subjected to fluorescence-activated flow cytometry using an Annexin V antibody conjugated to a fluorescent dye. Data presented as mean of 3 independent replicates.
92.1 cells were seeded in 96-well plates (5000 cells per well) and treated with increasing concentrations of Compound (A1), 3207-(B1) (Isotype control), G4-(B1), and G1-(B1) as indicated. Following drug treatment for 96, cells were subjected to fluorescence-activated flow cytometry using an Annexin V antibody conjugated to a fluorescent dye. Data presented as mean of 3 independent replicates.
For orientation: In flow cytometry, cells or beads pass a laser one at a time.

Data set [1] can be described thus: Plasma stability of Compound (A1) in mouse, rat, monkey and human plasma compared to buffer. The class given is in vitro ADME. Conditions: over 24 h, FIG. 4A-4B. The protocol:
The plasma stability of Compound (A1) was investigated in mouse, rat, monkey and human plasma and compared to buffer. Both disappearance of Compound (A1) (FIG. 4A) as well as appearance of the ring-opened form of Compound (A1) having the structure of Compound (A4)
[drawing 153] (FIG. 4B) were monitored over 24 h.

In another data set the test system is 92.1 uveal melanoma. The data set is described as follows: Resazurin-based viability assay, 92.1 uveal melanoma cells. Format: cell-based. The protocol:
(§2) Following drug treatment for 96 or 120 hours, cell viability and proliferation were determined using a resazurin-based viability assay. Briefly, cells were incubated with a resazurin-based solution and color change was detected by absorbance with a spectrophotometer and used as a readout of cell viability. Data presented as mean of 3 independent replicates and relative to PBS-treated cells (control).
Following drug treatment for 96 or 120 hours, cell viability and proliferation were determined using a resazurin-based viability assay. Briefly, cells were incubated with a resazurin-based solution and color change was detected by absorbance with a spectrophotometer and used as a readout of cell viability. Data presented as mean of 3 independent replicates and relative to PBS-treated cells (control) (FIG. 6).
Following drug treatment for 96 or 120 hours, cell viability and proliferation were determined using a resazurin-based viability assay. Data presented as mean of 3 independent replicates and relative to PBS-treated cells (control) (FIG. 8).
as §2

Another data set has as its system GNAQ/11. Put plainly: IP1 levels by TR-FRET in 92.1 uveal melanoma cells. Format: cell-based. Particulars: 92.1 cells, overnight treatment, FIG. 3A. As for the experimental part: as §1
92.1 uveal melanoma were treated with DMSO, Compound (A1) (8 nM) and increasing concentrations of Isotype-(B1), anti-PMEL17-(B1) and anti-PMEL17-(B2) ADCs as indicated. Following drug treatment for 2 days, cells were processed for determination of IP1 levels using TR-FRET (time-resolved fluorescent resonance energy transfer). IP1 levels (nM) are presented as mean of 3 independent replicates.

Data set [2] in a line: PK of Compound (A1) after intravenous dosing in mouse. Format: in vivo. Particulars: for Vd: read-out: Vss. From the text: Table 5 summarizing all PK values is shown below.
A short description of data set [3]: Stability in buffer at pH 5.6 and in lysosomes. Format: in vitro ADME. Conditions: buffer pH 5.6, lysosomes, 4 h, FIG. 5D. As for the experimental part: In vitro stability of Compound (A2) was tested in plasma and blood from different species (FIG. 5A). […]
The test system of data set [4] is Human Platelet Rich Plasma (PRP). Conditions: human PRP, 0.1, 1 and 150 nM, 4, 16 or 24 h, TRAP6 32 uM, FIG. 11.
Experimental: Platelet aggregation was then measured following treatment with Thrombin Receptor Activating Peptide 6 (TRAP6) at 32 uM.
For data set [5], the system named is MIAPACA pancreatic ductal adenocarcinoma cells. The data set is described as follows: Resazurin-based viability assay, MIAPACA cells. The class given is cell-based. Conditions: Homo sapiens, MIA PaCa-2, WT, 96 or 120 hours, Table 4. As for the experimental part: as §2, with “92.1 uveal melanoma and MIAPACA pancreatic ductal adenocarcinoma cells were seeded at low cell density in 96-well plates and treated with increasing concentrations of Compound (A1) or Compound (A2) as indicated. Following” for “Following”
A general note: The colour change of resazurin is a common sign of viable cells or microbes.

For data set [6], the system named is 92.1-luciferase subcutaneous xenografts. Put plainly: 92.1-luciferase subcutaneous xenograft tumor growth in female nude mice. Format: in vivo. Particulars: 7.5 mg/kg single dose i.v., FIG. 16. As for the experimental part:
Treatment (single dose i.v. injection) was performed 17 days post tumor inoculation. Values are mean±SEM; sample size, (n=5-12 mice per group). Initial tumor volume at day 0 was approximately 200-250 mm^3.
Treatments (single dose i.v. injection) were performed 17 days post tumor inoculation. Values represent mean±SEM; sample size, (n=5-6 mice per group). Initial tumor volume at day 0 was approximately 300-325 mm^3. (FIG. 16).
Treatment (single dose i.v. injection) was performed 14-17 days post tumor inoculation. Values are mean±SEM; sample size, (n=5-12 mice per group). Initial tumor volume at day 0 was approximately 200-250 mm3.

A short description of data set [7]: Exposure of ADC formats in an in vivo efficacy study and payload ring-opening on the antibody. Set-up: species or system mice. Conditions: formats of G1-(B1), in vivo efficacy study, FIG. 14D. The source says:
[drawing 156] (filled circles) while being conjugated to the antibody was shown in vivo in mice (FIG. 14C). […] From comparing the PK of the non-targeted 3207-ADCs (FIG. 14E) one can deduce that the Fc-silencing has a significant effect on lowering the clearance of the DAR4 format.

With `C=C1C(=O)N[C@@H](C)C(=O)N(C)[C@@H](C)C(=O)N[C@@H]([C@H](OC(=O)[C@@H](NC(=O)CC)[C@H](O)C(C)C)C(C)C)C(=O)N(C)[C@@H]([C@@H](C)OC)C(=O)O[C@H](C(C)C)[C@H](NC(C)=O)C(=O)O[C@H](Cc2ccccc2)C(=O)N1C` [Compound (A1), (R)-1-((3S,6S,9S,12S,18R,21S,22R)-21-acetamido-18-benzyl-22-isopropyl-3-((R)-1-methoxyethyl)-4,9,10,12,16-pentamethyl-15-methylene-2,5,8,11,14,17,20-heptaoxo-1,19-dioxa-4,7,10,13,16-pentaazacyclodocosan-6-yl)-2-methylpropyl (2S,3R)-3-hydroxy-4-methyl-2-propionamidopentanoate] (Ac-[X1][dPhLac][NMeDha]A[NMeA][X1](Leu(3R-OH,Nα-propionyl))[NMeT](Me); ester 1-C), the “ERK signaling (immunoblots)” value with ERK signaling is “reduced ERK signaling”. The “apoptosis (Annexin V)” value with 92.1 cells is recorded as “induced apoptosis in UM cells in GNAQ/11 dependent manner”. For the same molecule, the “transformation of Compound (A1) to ring-opened form in plasma” value in [1] is given as “slightly faster in human plasma”. Also, the concentration for 50% growth inhibition (GI50) in the data set with 92.1 uveal melanoma (92.1, GNAQ^Q209L, 96 or 120 hours, Table 4, read-out: GI50) was 0.18 nM; in the data set on 92.1 uveal melanoma (92.1 GNAQ^Q209L, Table 1, read-out: GI50 (nM) 92.1GNAQ^Q209L), 0.467 nM; in data set [5], above 10000 nM. The anti-UM activity result with 92.1 uveal melanoma (92.1 vs MIAPACA, FIG. 1) is “potent target-dependent anti-UM activity”. In the data set with GNAQ/11, the IP1 levels result is on record as “reduced IP1 levels”. Besides, the “AUCinf/D (nM*h/(mg/kg))” value is given as 82 nM*h/(mg/kg) in [2] (0.2 mg/kg), 118 nM*h/(mg/kg) in data set [2] (0.4 mg/kg) and 171 nM*h/(mg/kg) in data set [2] (0.8 mg/kg). The “C0/D (nM/(mg/kg))” value in data set [2] (0.2 mg/kg) is listed as 217 nM/(mg/kg); in data set [2] (0.4 mg/kg) it was 270 nM/(mg/kg); in data set [2] (0.8 mg/kg) it was 475 nM/(mg/kg). Besides, the results for the “Cmax/D (nM/(mg/kg))” value in data set [2] (0.2 mg/kg), in data set [2] (0.4 mg/kg) and in data set [2] (0.8 mg/kg) were 156 nM/(mg/kg), 208 nM/(mg/kg) and 300 nM/(mg/kg), respectively. Besides, in data set [2] (0.2-0.8 mg/kg), the exposure with dose entry is on record as “slightly over-proportional increase of exposure with dose”. Moreover, the clearance result in data set [2] (FIG. 4D) is “very high clearance”; in [2] (in vivo, 0.2 mg/kg, read-out: CL) it was 204 mL/min/kg; in data set [2] (in vivo, 0.4 mg/kg, read-out: CL), 141 mL/min/kg; in data set [2] (in vivo, 0.8 mg/kg, read-out: CL) it was 97 mL/min/kg. The volume of distribution entry in data set [2] (FIG. 4D) is reported as “moderate to high volume of distribution”. Besides, the AUC(0-inf) in data set [2] (in vivo, 0.2 mg/kg) amounted to 0.016 µM·h; in [2] (in vivo, 0.4 mg/kg) it was 0.047 µM·h; in [2] (in vivo, 0.8 mg/kg), 0.137 µM·h. Further, the C0 came to 43 nM in data set [2] (in vivo, 0.2 mg/kg); 108 nM in [2] (in vivo, 0.4 mg/kg); 380 nM in [2] (in vivo, 0.8 mg/kg). In addition, the Cmax in data set [2] (in vivo, 0.2 mg/kg) was 31 nM; in data set [2] (in vivo, 0.4 mg/kg), 83 nM; in data set [2] (in vivo, 0.8 mg/kg), 240 nM. The Vd in [2] (in vivo, 0.2 mg/kg) amounted to 8.6 L/kg; in [2] (in vivo, 0.4 mg/kg) it was 4.9 L/kg; in data set [2] (in vivo, 0.8 mg/kg), 4.6 L/kg. Further, the “stability in buffer and lysosomes” value in [3] was “stable in buffer at pH 5.6 and in lysosomes over 4 h”. The “platelet aggregation after TRAP6” value in [4] is “induced platelet aggregation”.

B1: G1-E152C-DAR2-(B1) (conjugate)
heavy: QVQLVQSGAEVKKPGSSVKVSCKASGGTFSDYAITWVRQAPGQGLEWMGGIIPIFGTANYAQKFQGRVTITADESTSTAYMELSSLRSEDTAVYYCAREGGLLTDISYSRYWFAYWGQGTLVTVSS
light: DIELTQPPSVSVSPGQTASITCSGDALRDKFVYWYQQKPGQAPVLVIYDDNNRPSGIPERFSGSNSGNTATLTISGTQAEDEADYYCQSWDHSYSLVVFGGGTKLTVLGQPKAAPSVTLFPPSSEELQANKATLVCLISDFYPGAVTVAWKADSSPVKAGVETTTPSKQSNNKYAASSYLSLTPEQWKSHRSYSCQVTHEGSTVEKTVAPTECS
modifications: left off: a dimerising Fc or GST
As to B1, the GI50 in the data set with 92.1 uveal melanoma (92.1, Table 10, read-out: GI50) is 0.365 nM. Further, in data set [6], the antitumor activity result is reported as “comparable antitumor activity”. Further, in data set [7], the “clearance / exposure of ADC formats” value is recorded as “lowest clearance”.
